Source: US7790435B2, “Chemical induction in quiescence in bacteria” (priority 2005, dated 2010)
Entries after “also recorded” stand apart in the source; their conditions may differ. Read-outs that look alike come from different tables or passages of the source.

Experiments:
[1] = tested on: E. coli W3110hns-205::Tn10; type: cell-based; conditions: 3 mM, L-broth containing tetracycline, 37° C.; for Growth inhibition: semi-quantitative estimate
Description: A single E. coli colony (W3110 hns-205::Tn10) was picked from an L-agar plate containing tetracycline (10 μg ml^−1) and inoculated into 10 ml L-broth. This was grown overnight in a shaking incubator at 37° C. 200 μl of overnight culture was inoculated into 20 ml L-broth in a 50 ml conical flask, and grown at 37° C. in a shaking water bath to an optical density at 600 nm (OD600) of between 0.2 and 0.3. Two ml of this culture was inoculated into 18 ml pre-warmed L-broth containing tetracycline (10 μg ml^−1) to which had been added an appropriate volume of indole, isoquinoline, indoline, tryptamine, quinoline, or pyrrole stock solution (0.5 M in ethanol), IAA stock solution (0.5 M in water), 3-β-indoleacrylic acid stock solution (0.125 M in ethanol) or 1-acetylindoline stock solution (0.25 M in ethanol) to give a final concentration of 3 mM.

[2] = tested on: E. coli gene mdtE; conditions: 2 mM indole; cited from earlier work
[3] = tested on: E. coli W3110; experiment: Growth of W3110 in tryptone water broth supplemented with indole (FIG. 2a); type: cell-based; conditions: 37° C.
Description: (§1) For the experimentation for which results are shown in FIG. 2a and FIG. 2b, W3110 and W3110hns-205 (Mukherjee et al., 2004) were cultured at 37° C. in tryptone water broth (Oxoid) supplemented with 0, 2 or 4 mM indole.

[4] = tested on: W3110hns-205 containing pCMT2blacZ; experiment: Growth and beta-galactosidase (LacZ) expression in indole-treated culture (FIG. 5); type: cell-based, E. coli; conditions: 2 mM indole, 42° C.
Description: For the experimentation for which results are shown in FIGS. 5a and 5b, W3110hns-205 containing pCMT2blacZ (a plasmid which contains the coding sequence for beta-galactosidase, transcribed from promoter lambda PL under the control of the temperature sensitive repressor cI857) was grown in L-broth at 30° C. to OD600=0.15. The culture was then divided into two and the temperature was increased to 42° C. to induce lacZ expression. Indole (2 mM) was added immediately to one subculture to induce a quiescent state, while the other was an indole-free control. Beta-galactosidase activities were measured for 24 hours after the temperature shift.

[5] = tested on: W3110hns-205 pcIts857; experiment: Comparison of indole- and Rcd-induced quiescence (FIG. 7); type: cell-based, E. coli; conditions: 42° C., L-broth
Description: The experiment for which results are shown in FIG. 7 compared the growth kinetics of Rcd-induced and indole-induced quiescent cultures. Cultures of W3110hns-205 pcIts^857 (Remaut et al., 1983) transformed with either pRcd1 (Rcd expression plasmid; Mukherjee et al., 2004)) or pUCdeltalacZ (control plasmid; no Rcd) were grown in L-broth at 30° C. for 90 minutes, then 2×5 ml aliquots of each culture were transferred to 50 ml conical flasks, pre-warmed to 42° C. (t=0). The temperature shift induces Rcd expression in cultures containing plasmid pRcdl but not in cultures containing pUCdeltalacZ. For each pair of cultures, indole (final concentration 2 mM) was added to one of them. IPTG was added to all cultures so that the induction of chromosomal LacZ could be monitored. Culture density was monitored over the following 24 h.

[6] = tested on: E. coli W3110hns-205::Tn10; type: cell-based; conditions: L-broth containing tetracycline
[7] = tested on: W3110hns205 containing plasmid pCMT2bompAhGM-CSF; experiment: hGM-CSF expression in indole-treated cultures, ELISA of total cell lysates (FIG. 4); type: cell-based, E. coli; conditions: for hGM-CSF production: 42° C., L-broth
Description: For the experimentation for which results are shown in FIG. 4, W3110hns205 containing plasmid pCMT2bompAhGM-CSF^(see below) (which contains the coding sequence for the cytokine hGM-CSF fused to an ompA leader sequence, transcribed from promoter lambda PL under the control of the temperature sensitive repressor cI857) was grown in L-broth at 30° C. to an OD600 of 0.36, at which point the culture was transferred to 42° C. to induce cytokine expression. Simultaneously indole was added to the growth medium at final concentrations of 0, 2 or 4 mM (FIG. 4a).
Cytokine production was quantified by ELISA of total cell lysates and assay data were normalised for culture density (FIG. 4b). […] In the control culture (no indole), hGM-CSF increased in the first hour before declining.

[8] = tested on: W3110 rnc-14; experiment: Indole-induced quiescence in an rnc mutant (FIG. 6); type: cell-based, E. coli; conditions: 2 mM indole
Description: For the experimentation for which results are shown in FIG. 6, a culture of W3110 rnc-14 was grown in L-broth at 37° C. to a density of OD600=0.15. The culture was divided into two (t=0) and indole (2 mM) was added to one of the sub-cultures. Growth of the cultures was measured over the following 27 hours. While the control culture eventually reached stationary phase at OD600=2, the indole-treated culture entered a non-growing state after approximately 7 hours and remained at a density of OD600=1 (approx.).

[9] = tested on: E. coli BW25113; experiment: Growth inhibition of E. coli BW25113 by indole in L-broth (FIG. 1); type: cell-based; conditions: 37° C.
Description: For the experimentation for which results are shown in FIG. 1, E. coli BW25113 (Datsenko & Wanner, 2000)was grown overnight at 37° C. in L-broth (Kennedy, 1971). The stationary phase culture was used to inoculate a series of L-broth cultures supplemented with indole (0-6 mM) and their growth was monitored over the next 7 hours.

[10] = tested on: W3110 hns205; experiment: Indole-induced quiescence of W3110 hns205 in broth culture (FIG. 2a, 2b, 3); type: cell-based, E. coli
Description: as §1
For the experimentation for which results are shown in FIG. 3a and FIG. 3b, W3110hns205 was cultured in L-broth at 30° C. (FIG. 3a) or 42° C. (FIG. 3b). At t=0 each culture was split into two and indole (final concentration 2 mM) was added to one part. […] The control cultures (no indole) continued to grow until they reached stationary phase.

Molecule: CC(=O)N1CCc2ccccc21 [1-acetylindoline]
- effect on growth (in words) [1]: substantial growth inhibition, but less severe than that shown by indole; also recorded: significant inhibitory effects

Molecule: O=C(O)/C=C/c1c[nH]c2ccccc12 [3-β-indoleacrylic acid]
- effect on growth (in words) [1]: very similar effects to indole; also recorded: significant inhibitory effects
- Growth inhibition [1]: +++

Molecule: O=C(O)Cc1c[nH]c2ccccc12 [IAA, indole-3-acetic acid]
- effect on growth (in words) [1]: slight stimulation of growth
- Growth inhibition [1]: −^b
- effect on growth (in words) ([1]; listed as indole acetic acid): not observed to have a significant effect on growth

Molecule: c1ccc2[nH]ccc2c1 [indole]
- elevation of expression [2]: 22 fold
- effect on growth ([3]; 2 mM indole): partial growth inhibition; also recorded: reduced growth rate
- effect on growth ([3]; 4 mM indole): inhibited growth severely; also recorded: completely inhibited growth
- final OD600 ([4]; L-broth): 0.78
- beta-galactosidase activity ([4]; after 24 h): 27,000 MU
- induction of quiescence ([5]; 2 mM indole plus Rcd expression (pRcd1)): entered a quiescent state but more rapidly and reached a lower final density
- induction of quiescence ([5]; 2 mM indole, no Rcd): enter a quiescent state with similar growth kinetics; also recorded: entered a quiescent state
- minimum concentration which causes immediate growth inhibition [6]: 3 mM
- hGM-CSF production ([7]; 2 mM indole, quiescent culture): increased rapidly for the first hour
- peak hGM-CSF concentration of control culture (no indole) relative to quiescent culture ([7]; 2 mM indole, normalised for culture density): less than half
- hGM-CSF production ([7]; 4 mM indole): produced no hGM-CSF
- Growth inhibition [1]: +++
- induction of quiescence [8]: induce quiescence; also recorded: enters quiescence
- culture density OD600 in non-growing state ([8]; L-broth, 37° C.): ~1
- time to enter a non-growing state ([8]; L-broth, 37° C.): approximately 7 hours
- effect on growth ([9]; 1 mM indole): growth inhibition was not evident; also recorded: no effect upon growth
- effect on growth ([9]; 2 or 3 mM indole): partial inhibition; also recorded: slowing of the growth rate
- effect on growth ([9]; 4, 5 or 6 mM indole): Growth inhibition was severe; also recorded: almost complete inhibition of growth
- effect on growth ([10]; 2 mM indole, L-broth): enter a quiescent state
- induction of quiescence ([10]; 2 mM indole, L-broth, 30° C. or 42° C.): induce quiescence; also recorded: entered the quiescent state with similar kinetics at both temperatures
- persistence of the quiescent state ([10]; 2 mM indole, at 30° C., 37° C. and 42° C.): at least 24 hours
- effect on growth ([10]; 4 mM indole, L-broth): complete growth inhibition
- effect on growth ([10]; 4 mM indole, tryptone water broth, 37° C.): almost complete inhibition of growth
- appropriate final concentration of indole to induce quiescence ([10]; shake-flask culture): 2 mM

Molecule: c1ccc2c(c1)CCN2 [indoline]
- effect on growth (in words) [1]: some inhibition of growth but their effect was less severe than indole
- effect on growth (in words) ([1]; listed as Indoline): slight growth inhibition

Molecule: c1ccc2cnccc2c1 [isoquinoline]
- effect on growth (in words) [1]: very similar effects to indole; also recorded: significant inhibitory effects
- Growth inhibition [1]: +++
- effect on growth (in words) ([1]; listed as Isoquinoline): very similar effects to indole

Molecule: c1ccc2ncccc2c1 [quinoline]
- effect on growth (in words) [1]: significant inhibitory effects
- effect on growth (in words) ([1]; listed as Quinoline): some inhibition of growth but their effect was less severe than indole; also recorded: substantial growth inhibition, but less severe than that shown by indole

Molecule: NCCc1c[nH]c2ccccc12 [tryptamine]
- effect on growth (in words) [1]: some inhibition of growth but their effect was less severe than indole; also recorded: slight growth inhibition

Molecule: pyrrole
- effect on growth (in words) [1]: no observed inhibitory effect
- Growth inhibition [1]: −
- effect on growth (in words) ([1]; listed as Pyrrole): not observed to have a significant effect on growth
